Measurements: patent publication US8343488B2, “Diagnosis and treatment of human dormancy-related sequellae” (priority 2002, dated 2013)
Read-outs that look alike come from different tables or passages of the source.

Assays:
[1] = tested on: SLE, hypocomplementemic urticarial vasculitis; conditions: in vivo
[2] = cited from earlier work
Cpn infected macrophages = conditions: in vitro; cited from earlier work
recurrent bronchitis = assay: Case report: post-radiation recurrent bronchitis, antibacterial and antifungal therapy; assay type: in vivo, human; conditions: 500 mg QD #20; sputum positive for Klebsiella pneumoniae
From the text: It is generally known that ACC is not usually sensitive to chemotherapy or standard […] beam radiation. Higher energy radiation doses, such as neutron beam radiation, have shown some promise and referral to the Cancer Center for radiation treatment was arranged. Under the care of a physician, 16 sessions of neutron beam radiation were provided, followed by two sessions of endotracheal brachytherapy with proton radiation. The patient tolerated the radiation relatively well and returned to work. They were warned that chronic bronchitis might follow airway radiation from the loss of salivary cells and ciliary cells in the bronchus. The patient was screened for recurrence twice yearly with neck MRI and lung CT for 3 years and there was no evidence of recurrence. Post radiation year 4 brought recurrent bronchitis that would remit temporarily with antibiotic therapy.
Bronchoscopy was performed in January of 2004 to better determine the source of recurrent bronchitis. There was no evidence of cancer recurrence (FIG. 1). […] Brochoscopic washings were also sent for fungal cultures. The patient's IgG levels to Penicillium and Aspergillus were elevated, while the routine fungal cultures from bronchial washings were negative. […] The patient reported reduced fatigue, reduced inhalant allergies and a slight reduction in volume of sputum production. […]

Alzheimer's dementia = assay: Case report: DRS-2 in a patient with Alzheimer's dementia; conditions: human, in vivo
Method: A retired attorney with Alzheimer's dementia was tested with the DRS-2 and found to be in the first percentile overall before T3 treatment and in the 25th percentile after 3 months of slow-release T3 therapy. Some parameters such as “conceptualization” increase dramatically from the 4th to the 50th percentile and “attention” improved from the 35th to the 89th percentile. […] Serology for Chlamydia pneumoniae confirmed both IgG and IgA antibodies (consistent with chronic or relapsing infection) and treatment with antibiotic medication has provided additional improvement in cognitive function. Prophylactic treatment with low dose antifungal medication is a component of this treatment.

seropositive RA = assay: Case report: Chlamydia pneumoniae-related rheumatoid arthritis; assay type: in vivo, human; conditions: low dose
Method: A person with seropositive RA with joint swelling in their hands, elbows, knees and feet had negative serology for Chlamydia pneumoniae infection, along with elevated rT3/fT3 ratio and symptoms of fibromyalgia. They were initially treated with immunosuppressive medication including Prednisone 20 mg QD, Methotrexate 15 mg Qweek, antiTNF therapy with Humira injections twice monthly with limited response of less than ACR 20. […] After failing immunosuppressive therapy, a course of antibiotics designed to treat Chlamydia pneumoniae infection was prescribed. The antibiotic protocol is consistent with that recommended by Dr. Charles Stratton of Vanderbilt University for Chlamydia pneumoniae infection. […] This example illustrates the unreliable nature of currently available tests for Chlamydia pneumoniae infection and that patients with autoimmune disease with negative tests for Chlamydia pneumoniae infection are likely to have seronegative Chlamydia pneumoniae infection and respond to antibiotics. The use of T3 and antifungal medication in conjunction with antibiotic treatment has been beneficial.

[3] = tested on: stage-4 metastatic breast cancer; assay: Case report: antibiotic treatment of metastatic breast cancer; assay type: in vivo, human
Method: A person was diagnosed with stage-4 metastatic breast cancer with bone, pelvic and lung involvement. Treatment was initiated on Jan. 23, 2005 with Amoxicillin 500 mg 1 QD, Ketek 400 mg 1 QD, Flagyl 500 mg 2 BID. The dose of Flagyl was […] to 500 mg 1 BID on Feb. 1, 2005. By Feb. […] Hospitalization was necessary. […] The attending physicians presumed the cause of their condition was C. difficile related despite the negative tests and treated them with metronidazole. […] They were encouraged to discontinue antibiotic treatment and enter hospice for palliative care.

[4] = tested on: SLE, hypocomplementemic urticarial vasculitis; assay: Case report: treatment of systemic lupus erythematosus
pancreatic cancer = conditions: in vivo
[5] = tested on: stage 4-metastatic pancreatic cancer; assay: Case report: antibiotic treatment of pancreatic cancer (Example 3); assay type: in vivo, human; conditions: before antibiotic treatment
Method: Ascites had developed and paracentesis was performed 3 days prior to our first visit. They were having difficulty breathing and eating due to abdominal distention from ascites. […] Treatment with Amoxicillin 500 mg 1 QD, Ketek 500 mg 1 QD, and Flagyl 500 mg 1-2 QD was initiated. […] 4, 2005 and was tolerating the above protocol. Their lab results from Jan. […] 27, 2004:
The dose of Flagyl was increased to 1500 mg on Jan. […] 27, 2005.

Which tolerability of trial [1] does the source give for Cc1oncc1C(=O)Nc1ccc(C(F)(F)F)cc1 [Arava] here?
The tolerability of trial was “poorly tolerated”.

With O=C1O[C@H]([C@@H](O)CO)C(O)=C1O [Ascorbic acid] as the compound, how does the half life [2] read?
The half life was 30 min.

And the “effect on Cpn in infected macrophages” value (Cpn infected macrophages)?
Its value is “driving the organism into cryptic phase”.

Which sputum production (recurrent bronchitis) does the source give for C[C@H]1COc2c(N3CCN(C)CC3)c(F)cc3c(=O)c(C(=O)O)cn1c23 [Levoquin] here?
Its sputum production is “reduced sputum production for three weeks”.

What does the source list for N[C@@H](Cc1cc(I)c(Oc2ccc(O)c(I)c2)c(I)c1)C(=O)O [T3, triiodothyronine]?
effect of discontinuation of supplementation (Alzheimer's dementia): worsening of Alzheimer's symptoms; fatigue and muscle pain (seropositive RA): fatigue and muscle pain improved

Which symptoms after switch ([3]; in hospital) does the source give for CN[C@H](CC(C)C)C(=O)N[C@H]1C(=O)N[C@@H](CC(N)=O)C(=O)N[C@H]2C(=O)N[C@H]3C(=O)N[C@H](C(=O)N[C@H](C(=O)O)c4cc(O)cc(O)c4-c4cc3ccc4O)[C@H](O)c3ccc(c(Cl)c3)Oc3cc2cc(c3O[C@@H]2O[C@H](CO)[C@@H](O)[C@H](O)[C@H]2O[C@H]2C[C@](C)(N)[C@H](O)[C@H](C)O2)Oc2ccc(cc2Cl)[C@H]1O [Vancomycin] here?
The symptoms after switch was “symptoms gradually improved six days later”.

Which “synovitis, hypocomplementemic urticarial rash and proteinuria” value ([4]; before October 2003) does the source give for CCN(CCO)CCCC(C)Nc1ccnc2cc(Cl)ccc12 (stereo not shown) [hydroxychloroquine] here?
Its value is “responding to treatment”.

Which tolerability of trial ([4]; additional immunosuppressive therapy) does the source give for CN(Cc1cnc2nc(N)nc(N)c2n1)c1ccc(C(=O)N[C@@H](CCC(=O)O)C(=O)O)cc1 [methotrexate] here?
The tolerability of trial was “poorly tolerated”.

With Cc1ncc([N+](=O)[O-])n1CCO [metronidazole] as the compound, how does the adverse reaction ([3]; after one week of increased doses) read?
The adverse reaction was “severe depression, hypotension, hypothermia, emesis and diarrhea”.

What about the “symptoms of presumed C. difficile diarrhea” value ([3]; in hospital, C. difficile tests negative) of the same compound?
Its value is “symptoms did not remit”.

What about the “tolerability of increased dose” value (pancreatic cancer) of the same compound?
Its value is “well tolerated”.

With CCCCCOC(=O)Nc1nc(=O)n([C@@H]2O[C@H](C)[C@@H](O)[C@H]2O)cc1F [zoloda] as the compound, how does the outcome of chemotherapy [5] read?
Its outcome of chemotherapy is “failed”.
